Laboratory results as given in publication PMC8537218, “Discovery of a Novel Class of Norovirus Inhibitors with High Barrier of Resistance” (Pharmaceuticals, 2021).
Where two headings read alike, the source gives them in different places.

Columns and labels:
[1] = Cytotoxicity assay (MTS) on non-infected RAW 264.7 cells; assay type: cell-based; conditions: mouse, non-infected RAW 264.7 cells, cytotoxic concentration to induce 50% death of non-infected RAW 264.7 cells; read-out: MNV CC50 ± SD
Protocol: (§1) Norovirus: The experiment was performed as described earlier. In short, RAW 264.7 cells (1 × 10^4 cells/well) were infected with MNV.CW1 in the presence of a dilution series of compounds. Antiviral activity and cytotoxicity were determined using a colometric assay using 3-(4,5-dimethylthiazol-2-yl)-5-(3-carboxymethoxyphenyl)-2-(4-sulfophenyl)-2H-tetrazolium (MTS). The 50% effective concentration (EC50) was defined as the compound concentration that protected 50% of the cells from CPE. The cell viability % was calculated as (ODtreated/ODCC) […] and the 50% cytotoxic concentration (CC50) was defined as the compound concentration that reduces the number of viable cells by 50%.

[2] = tested on: Murine norovirus type 1, strain CW1; experiment: MNV-induced CPE reduction assay (MTS read-out) in RAW 264.7 cells; assay type: cell-based; conditions: MNV CW1, RAW 264.7 cells, read-out: MNV EC50 ± SD
Protocol: as §1

[3] = tested on: HuNoV GI.1 replicon (Norwalk replicon); experiment: HuNoV GI.1 replicon assay in HG23 cells (RT-qPCR); assay type: cell-based, Human norovirus; conditions: Norovirus, HG23, 72 h, Norwalk replicon (human GI.1), HG23 cells, 72 h, replicon RNA by RT-qPCR; read-out: HuNoV Replicon EC50 ± SD
Protocol: HuNoV GI.1 replicon: The experiment was performed as described earlier with minor modifications. In short, HG23 cells (7.5 × 10^2 cells/well) were seeded into the wells of a 96-well plate without G418 (Geneticin Selective Antibiotic). After 24 h of incubation, serial dilutions of compounds were added. Cells were further incubated for 72 h, then cells were collected for RNA load quantification by RT-qPCR. To determine relative levels of Norwalk virus replicon RNA, β-actin was used as a normalizer and ratios were calculated as previously described.

[4] = tested on: MNV.CW3/S131T and MNV.CW3/Y154F; experiment: Antiviral assay on reverse-engineered MNV.CW3 mutant viruses (S131T, Y154F); assay type: cell-based, Murine norovirus; conditions: single mutations S131T or Y154F in MNV backbone
Protocol: The desired mutations were introduced into the MNV.CW3 cDNA clones using the QuikChange II XL mutagenesis kit (Agilent) according to the manufacturer’s instructions. The presence of the desired mutation in the produced construct was confirmed by PCR and sequencing was done by Macrogen Inc. Sequences were analyzed and mutations were detected using the Geneious software.
The MNV.CW3 mutant viral stocks were obtained by transfecting the mutated plasmid pMNV CW3 (kindly provided by Prof. Wobus, University of Michigan) in Huh 7 Lunet cells expressing the MNV receptor CD300lf (kindly provided by Prof. Taube, University of Lübeck). Huh-7 CD300lf cells were cultured under selective pressure of G418. The Huh-7 CD300lf cells were seeded in 6-well plates at a density of 2 × 10^5 cells/mL in 2.5 mL of complete media. After 24 h, the cells were transfected with 2.5 μg of pMNV CW3 plasmid DNA using the TransIT mRNA Transfection Kit (Mirus Bio Corporation) according to the manufacturer’s protocol. Red fluorescent protein (RFP) was used as a positive control for transfection. Transfected cells were incubated for 48 h, cells underwent two freeze thaw cycles and the virus was harvested from the supernatants after centrifugation (10 min, 1000× g) and stored at −80 °C. Virus stocks were passaged for three times on BV-2 cells and followed by two consecutive passages on RAW 264.7 cells. Viral titers were determined by serial dilutions on RAW 264.7 cells seeded in 96-well plates.
The assessment of the antiviral activity of compounds on resistant viruses was performed similarly as the regular antiviral assay on MNV. First, the titer of the resistant viruses was determined by endpoint titration. A concentration of 30× TCID50 was used for each virus in the antiviral assays. RAW 264.7 cells (1 × 10^4 cells/well) were seeded in the presence of a dilution series of compounds and infected. Antiviral activity was determined using the MTS method. The 50% effective concentration (EC50) was defined as the compound concentration that protected 50% of the cells from CPE.

MNV = experiment: Time-of-drug-addition assay (TOA) in MNV-infected RAW 264.7 cells; assay type: cell-based, Murine norovirus; conditions: time-of-addition experiment
Protocol: RAW 264.7 cells (4 × 10^5 cells/mL) were infected with MNV (MOI of 1). After 1 h at 4 °C, cells were washed with cold (4 °C) DMEM to remove unbound viruses. Cells were incubated at 37 °C to start the infection. To study the replication kinetics of MNV supernatant and cells were harvested, from untreated cultures, every 2 h until 24 h post-infection (pi) and viral RNA was quantified by RT-qPCR. In parallel, another set of infected cultures were treated with compound. The compound was added at 2 h intervals and cultures were further incubated until 24 h pi, supernatant and cells were collected separately for determination of the viral RNA by RT-qPCR. The isolation of the extracellular MNV RNA from cell culture supernatant was done by the NucleoSpin RNA Virus Kit (Macherey–Nagel), and the intracellular RNA was extracted from cells by the RNeasy kit (Qiagen).

RAW 264.7 cells = experiment: Cytotoxicity assay (MTS) on non-infected RAW 264.7 cells; assay type: cell-based; conditions: RAW 264.7 cells
Protocol: as §1

[5] = RAW264.7, concentration inhibiting norovirus induced cell death (CPE) by 50%

Compound | CC50 [1] | melting point | EC50 [2, 5] | EC50 [3] | EC50 ([2]; concentration inhibiting norovirus induced cell death (CPE) by 50%) | shift in EC50 / sensitivity of mutant viruses [4] | step of the MNV replication cycle at which the compound acts (MNV) | cytotoxicity (in words) (RAW 264.7 cells)
Cc1cc(C)cc(C(=O)c2c(C(=O)NCc3ccc(CO)cc3)[nH]c3ccc(Cl)cc23)c1 [compound 8, 5-Chloro-3-(3,5-dimethylbenzoyl)-N-(4-(hydroxymethyl)benzyl)-1H-indole-2-carboxamide] | 7.97 ± 15.3 µM | 271 to 274 °C | > 100 µM |  |  |  |  | 
Cc1cc(C)cc(Cc2c(C(=O)NCc3ccc(CO)cc3)[nH]c3ccc(Cl)cc23)c1 [compound 7, 5-Chloro-3-(3,5-dimethylbenzyl)-N-(4-(hydroxymethyl)benzyl)-1H-indole-2-carboxamide] | 9.27 ± 6.6 µM | 171 to 174 °C | 0.84 ± 0.22 µM | 5.59 ± 2.47 µM |  |  |  | 
Cc1cc(C)cc(S(=O)(=O)c2c(C(=O)Nc3ccc(CO)cc3)[nH]c3ccc(Cl)cc23)c1 [compound 1, 5-Chloro-3-((3,5-dimethylphenyl)sulfonyl)-N-(4-(hydroxymethyl)phenyl)-1H-indole-2-carboxamide] | > 100 µM | 220 to 221 °C | 0.5 ± 0.1 µM | ~2 µM | 0.52 ± 0.07 µM |  |  | 
CCOC(=O)/C=C/[C@H](C[C@@H]1CCNC1=O)NC(=O)[C@@H](CC(=O)[C@@H](NC(=O)c1cc(C)on1)C(C)C)Cc1ccc(F)cc1 [rupintrivir] |  |  |  |  |  | remained equally sensitive |  | 
C[C@@]1(O)[C@H](O)[C@@H](CO)O[C@H]1n1ccc(N)nc1=O [2CMC, 2′-C-methylcytidine, reference compound] |  |  |  |  |  | remained equally sensitive | onset of the viral genome replication | 
O=C(Nc1ccc(CO)cc1)c1[nH]c2ccc(Cl)cc2c1S(=O)(=O)c1ccccc1 [compound 5, 5-Chloro-N-(4-(hydroxymethyl)phenyl)-3-(phenylsulfonyl)-1H-indole-2-carboxamide] | 34.9 ± 5.03 µM | 152 to 155 °C | > 100 µM |  |  |  |  | 
Cc1cc(C)cc(S(=O)(=O)c2c(C(=O)NCCO)[nH]c3ccc(Cl)cc23)c1 [compound 3, 5-Chloro-3-((3,5-dimethylphenyl)sulfonyl)-N-(2-hydroxyethyl)-1H-indole-2-carboxamide] | 88.7 ± 4.75 µM |  | > 100 µM | 47.7 ± 3.39 µM |  |  |  | 
O=C(NCc1ccc(CO)cc1)c1[nH]c2ccc(Cl)cc2c1S(=O)(=O)c1ccccc1 [compound 10, 5-Chloro-N-(4-(hydroxymethyl)benzyl)-3-(phenylsulfonyl)-1H-indole-2-carboxamide] | 25.7 ± 34.9 µM | 182 to 185 °C | 0.63 ± 0.48 µM | 18.5 ± 16.3 µM |  |  |  | 
Cc1cc(C)cc(Sc2c(C(=O)NCc3ccc(CO)cc3)[nH]c3ccc(Cl)cc23)c1 [compound 9, 5-Chloro-3-((3,5-dimethylphenyl)thio)-N-(4-(hydroxymethyl)benzyl)-1H-indole-2-carboxamide] | 31.7 ± 8.01 µM | 212 to 215 °C | 4.39 ± 4.78 µM | 11.8 ± 8.4 µM |  |  |  | 
Cc1cc(C)cc(S(=O)(=O)c2c(C(=O)NCc3ccccc3)[nH]c3ccc(Cl)cc23)c1 [compound 2, N-Benzyl-5-chloro-3-((3,5-dimethylphenyl)sulfonyl)-1H-indole-2-carboxamide] | > 100 µM |  | > 100 µM | 3.66 ± 0.66 µM |  |  |  | 
Cc1cc(C)cc(S(=O)(=O)c2c(C(=O)NCCc3ccc(O)cc3)[nH]c3ccc(Cl)cc23)c1 [compound 11, 5-Chloro-3-((3,5-dimethylphenyl)sulfonyl)-N-(4-hydroxyphenethyl)-1H-indole-2-carboxamide] | 8.49 ± 8.09 µM | 231 to 234 °C | 36 ± 23.3 µM | 27.5 ± 28.7 µM |  |  |  | highly cytotoxic
Cc1cc(C)cc(S(=O)(=O)c2c(C(=O)NCc3ccc(O)cc3)[nH]c3ccc(Cl)cc23)c1 [compound 4, 5-Chloro-3-((3,5-dimethylphenyl)sulfonyl)-N-(4-hydroxybenzyl)-1H-indole-2-carboxamide] | 3.48 ± 1.1 µM | 236 to 237 °C | > 100 µM | 88.3 ± 4.75 µM |  |  |  | highly cytotoxic
